Experimental data as given in publication PMC11277489, “Novel Piperazine Derivatives of Vindoline as Anticancer Agents” (International Journal of Molecular Sciences, 2024).
Like-named read-outs stand apart in the source and are kept apart here.

Experiments:
SR = experiment: NCI60 one-dose screen (10 μM), Leukemia; type: cell-based; settings: Homo sapiens, read-out: Growth percent rate
HOP-92 = experiment: NCI60 one-dose screen (10 μM), Non-small Cell Lung Cancer; type: cell-based; settings: Homo sapiens
NCI-H226 = experiment: as above; type: cell-based; settings: Homo sapiens
SF-268 = experiment: NCI60 one-dose screen (10 μM), CNS Cancer; type: cell-based; settings: Homo sapiens
LOX IMVI = experiment: NCI60 one-dose screen (10 μM), Melanoma; type: cell-based, human; settings: Homo sapiens, LOX IMVI, read-out: Growth percent rate
UACC-62 = experiment: NCI60 one-dose screen (10 μM), Melanoma; type: cell-based; settings: Homo sapiens
OVCAR-4 = experiment: NCI60 one-dose screen (10 μM), Ovarian Cancer; type: cell-based; settings: Homo sapiens
OVCAR-5 = experiment: NCI60 one-dose screen (10 μM), Ovarian Cancer; type: cell-based; settings: Homo sapiens
NCI/ADR-RES = experiment: NCI60 one-dose screen (10 μM), Ovarian Cancer; type: cell-based; settings: Homo sapiens, read-out: Growth percent rate
SK-OV-3 = experiment: NCI60 one-dose screen (10 μM), Ovarian Cancer; type: cell-based; settings: Homo sapiens
RXF 393 = experiment: NCI60 one-dose screen (10 μM), Renal Cancer; type: cell-based, human; settings: Homo sapiens
UO-31 = experiment: NCI60 one-dose screen (10 μM), Renal Cancer; type: cell-based; settings: Homo sapiens
PC-3 = experiment: NCI60 one-dose screen (10 μM), Prostate Cancer; type: cell-based; settings: Homo sapiens
DU-145 = experiment: NCI60 one-dose screen (10 μM), Prostate Cancer; type: cell-based; settings: Homo sapiens
MDA-MB-231/ATCC = experiment: NCI60 one-dose screen (10 μM), Breast Cancer; type: cell-based, human; settings: Homo sapiens
BT-549 = experiment: NCI60 one-dose screen (10 μM), Breast Cancer; type: cell-based; settings: Homo sapiens
T-47D = experiment: NCI60 one-dose screen (10 μM), Breast Cancer; type: cell-based; settings: Homo sapiens, T47D, read-out: Growth percent rate
MDA-MB-468 = experiment: NCI60 one-dose screen (10 μM), Breast Cancer; type: cell-based; settings: Homo sapiens
[1] = tested on: 60 human tumor cell lines (NCI60); experiment: NCI60 one-dose screen (10 μM), whole panel; type: cell-based; settings: read-out: Growth percent rate, Mean

Compound `CC[C@]12C=CCN3CC[C@@]4(c5ccc(OC)cc5N(C)[C@H]4[C@@](O)(C(=O)OC)[C@@H]1OC(=O)CCC(=O)N1CCN(Cc4ccc(F)cc4)CC1)[C@@H]32` [Compound 30] has an activity at 10 µM (SR; 10 μM, Leukemia) of 56.4%, an activity at 10 µM (HOP-92; 10 μM, HOP-92, Non-small Cell Lung Cancer, read-out: Growth percent rate) of 66.4% and an activity at 10 µM (NCI-H226; 10 μM, NCI-H226, Non-small Cell Lung Cancer, read-out: Growth percent rate) of 69.9%. The activity at 10 µM (SF-268; 10 μM, SF-268, CNS Cancer, read-out: Growth percent rate) was 50.8%, the activity at 10 µM (LOX IMVI; 10 μM, Melanoma) was 71.8% and the activity at 10 µM (UACC-62; 10 μM, UACC-62, Melanoma, read-out: Growth percent rate) was 67.1%. The activity at 10 µM (OVCAR-4; 10 μM, OVCAR-4, Ovarian Cancer, read-out: Growth percent rate) was 56.4%, the activity at 10 µM (OVCAR-5; 10 μM, OVCAR-5, Ovarian Cancer, read-out: Growth percent rate) was 96.3% and the activity at 10 µM (NCI/ADR-RES; 10 μM, Ovarian Cancer) was 65.2%. The activity at 10 µM (SK-OV-3; 10 μM, SK-OV-3, Ovarian Cancer, read-out: Growth percent rate) was 103%, the activity at 10 µM (RXF 393; 10 μM, RXF 393, Renal Cancer, read-out: Growth percent rate) was 60.1% and the activity at 10 µM (UO-31; 10 μM, UO-31, Renal Cancer, read-out: Growth percent rate) was 62.3%. It also gave an activity at 10 µM (PC-3; 10 μM, PC-3, Prostate Cancer, read-out: Growth percent rate) of 44.5%, an activity at 10 µM (DU-145; 10 μM, DU-145, Prostate Cancer, read-out: Growth percent rate) of 82.6% and an activity at 10 µM (MDA-MB-231/ATCC; 10 μM, MDA-MB-231/ATCC, Breast Cancer, read-out: Growth percent rate) of 65.3%. For the same compound, the activity at 10 µM (BT-549; 10 μM, BT-549, Breast Cancer, read-out: Growth percent rate) was 98.1%, the activity at 10 µM (T-47D; 10 μM, T-47D, Breast Cancer) was 73.8% and the activity at 10 µM (MDA-MB-468; 10 μM, MDA-MB-468, Breast Cancer, read-out: Growth percent rate) was 1.38%. The activity at 10 µM ([1]; 10 μM, mean over 60 human cancer cell lines) was 71.4%.

`CC[C@]12C=CCN3CC[C@@]4(c5ccc(OC)cc5N(C)[C@H]4[C@@](O)(C(=O)OC)[C@@H]1OC(=O)CCC(=O)N1CCN(C(=O)c4ccco4)CC1)[C@@H]32` [Compound 32] showed an activity at 10 µM (SR) of 117%, an activity at 10 µM (HOP-92; HOP-92, read-out: Growth percent rate) of 92.4% and an activity at 10 µM (NCI-H226; NCI-H226, read-out: Growth percent rate) of 115%. It also gave an activity at 10 µM (SF-268; SF-268, read-out: Growth percent rate) of 92.2%, an activity at 10 µM (LOX IMVI) of 97.8% and an activity at 10 µM (UACC-62; UACC-62, read-out: Growth percent rate) of 59.5%. The activity at 10 µM (OVCAR-4; OVCAR-4, read-out: Growth percent rate) was 98.1%, the activity at 10 µM (OVCAR-5; OVCAR-5, read-out: Growth percent rate) was 105% and the activity at 10 µM (NCI/ADR-RES) was 106%. It also gave an activity at 10 µM (SK-OV-3; SK-OV-3, read-out: Growth percent rate) of 111%, an activity at 10 µM (RXF 393; RXF 393, read-out: Growth percent rate) of 102% and an activity at 10 µM (UO-31; UO-31, read-out: Growth percent rate) of 98.8%. For the same compound, the activity at 10 µM (PC-3; PC-3, read-out: Growth percent rate) was 90.6%, the activity at 10 µM (DU-145; DU-145, read-out: Growth percent rate) was 116% and the activity at 10 µM (MDA-MB-231/ATCC; MDA-MB-231, read-out: Growth percent rate) was 91.1%. For the same compound, the activity at 10 µM (BT-549; BT-549, read-out: Growth percent rate) was 122%, the activity at 10 µM (T-47D) was 92.5% and the activity at 10 µM (MDA-MB-468; MDA-MB-468, read-out: Growth percent rate) was 78%. It also gave an activity at 10 µM ([1]; Homo sapiens) of 97.2%.
